Assay results taken from PubChem BioAssay (NCI).
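Assay format: 96-well plates, 48-hour exposure. At the GI50, growth is halved. TGI marks complete inhibition of growth.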

Key:
Assay in all cases: DTP human tumour cell line panel, 48 h
[1] = test system: K-562 leukemia
[2] = test system: SR leukemia
[3] = test system: U251 CNS
[4] = test system: 786-0 renal
[5] = test system: A498 renal
[6] = test system: A549 NSCLC
[7] = test system: ACHN renal
[8] = test system: BT-549 breast
[9] = test system: CAKI-1 renal
[10] = test system: COLO 205 colon
[11] = test system: DU-145 prostate
[12] = test system: EKVX NSCLC
[13] = test system: HCC-2998 colon
[14] = test system: HCT-15 colon
[15] = test system: HL-60(TB) leukemia
[16] = test system: HOP-92 NSCLC
[17] = test system: HS 578T breast
[18] = test system: HT29 colon
[19] = test system: IGROV1 ovarian
[20] = test system: KM12 colon
[21] = test system: LOX IMVI melanoma
[22] = test system: M14 melanoma
[23] = test system: MALME-3M melanoma
[24] = test system: MCF7 breast
[25] = test system: MDA-MB-231 breast
[26] = test system: MDA-MB-435
[27] = test system: MOLT-4 leukemia
[28] = test system: NCI-H226 lung
[29] = test system: NCI-H23 lung
[30] = test system: NCI-H460 lung
[31] = test system: NCI-H522 lung
[32] = test system: NCI/ADR-RES ovarian
[33] = test system: OVCAR-3 ovarian
[34] = test system: OVCAR-4 ovarian
[35] = test system: OVCAR-5 ovarian
[36] = test system: OVCAR-8 ovarian
[37] = test system: PC-3 prostate
[38] = test system: RPMI-8226 leukemia
[39] = test system: RXF 393 renal
[40] = test system: SF-268 CNS
[41] = test system: SF-295 CNS
[42] = test system: SF-539 CNS
[43] = test system: SK-MEL-2 melanoma
[44] = test system: SK-MEL-28 melanoma
[45] = test system: SK-MEL-5 melanoma
[46] = test system: SK-OV-3 ovarian
[47] = test system: SN12C renal
[48] = test system: SNB-19 CNS
[49] = test system: SNB-75 CNS
[50] = test system: SW-620 colon
[51] = test system: T-47D breast
[52] = test system: TK-10 renal
[53] = test system: UACC-257 melanoma
[54] = test system: UACC-62 melanoma
[55] = test system: UO-31 renal

## C=C(CNCCc1ccc(O)cc1)[C@@H]1CC[C@]2(COC3CCCCO3)CC[C@]3(C)[C@H](CC[C@@H]4[C@@]5(C)CCC(N)C(C)(C)[C@@H]5CC[C@]43C)[C@@H]12 (some centres undefined)
[1]
  GI50: 305 nM
  TGI: > 100000 nM
[2]
  GI50: 289 nM
  TGI: > 100000 nM
[3]
  GI50: 306 nM
  TGI: > 100000 nM

## O=C1/C(=C/c2ccc(Cl)cc2)COc2ccc(O)c(O)c21
[4]
  GI50: 1420 nM
  TGI: 5170 nM
[5]
  GI50: 2950 nM
  TGI: 9190 nM
[6]
  GI50: 1790 nM
  TGI: 4770 nM
[7]
  GI50: 1140 nM
  TGI: 2360 nM
[8]
  GI50: 1770 nM
  TGI: 4040 nM
[9]
  GI50: 1070 nM
  TGI: 2280 nM
[10]
  GI50: 1790 nM
  TGI: 3310 nM
[11]
  GI50: 1440 nM
  TGI: 3130 nM
[12]
  GI50: 1490 nM
  TGI: 3190 nM
[13]
  GI50: 1510 nM
  TGI: 2960 nM
[14]
  GI50: 356 nM
  TGI: 4180 nM
[15]
  GI50: 280 nM
  TGI: 827 nM
[16]
  GI50: 2010 nM
  TGI: 8770 nM
[17]
  GI50: 1800 nM
  TGI: 7020 nM
[18]
  GI50: 1920 nM
  TGI: 3980 nM
[19]
  GI50: 438 nM
  TGI: 2160 nM
[1]
  GI50: 321 nM
  TGI: > 100000 nM
[20]
  GI50: 1360 nM
  TGI: 3310 nM
[21]
  GI50: 330 nM
  TGI: 1360 nM
[22]
  GI50: 1920 nM
  TGI: 4770 nM
[23]
  GI50: 1470 nM
  TGI: 3470 nM
[24]
  GI50: 332 nM
  TGI: 2150 nM
[25]
  GI50: 1110 nM
  TGI: 3250 nM
[26]
  GI50: 702 nM
  TGI: 2630 nM
[27]
  GI50: 618 nM
  TGI: > 100000 nM
[28]
  GI50: 1860 nM
  TGI: 5180 nM
[29]
  GI50: 1710 nM
  TGI: 4090 nM
[30]
  GI50: 1780 nM
  TGI: 3890 nM
[31]
  GI50: 182 nM
  TGI: 426 nM
[32]
  GI50: 1600 nM
  TGI: 15800 nM
[33]
  GI50: 404 nM
  TGI: 1480 nM
[34]
  GI50: 1330 nM
  TGI: 2710 nM
[35]
  GI50: 1600 nM
  TGI: 3210 nM
[36]
  GI50: 1110 nM
  TGI: 12800 nM
[37]
  GI50: 501 nM
  TGI: 3480 nM
[38]
  GI50: 200 nM
  TGI: 512 nM
[39]
  GI50: 1340 nM
  TGI: 2750 nM
[40]
  GI50: 1440 nM
  TGI: 3060 nM
[41]
  GI50: 3370 nM
  TGI: 13200 nM
[42]
  GI50: 440 nM
  TGI: 1870 nM
[43]
  GI50: 2510 nM
  TGI: 7630 nM
[44]
  GI50: 1530 nM
  TGI: 3060 nM
[45]
  GI50: 1510 nM
  TGI: 2900 nM
[46]
  GI50: 2490 nM
  TGI: > 100000 nM
[47]
  GI50: 724 nM
  TGI: 2570 nM
[48]
  GI50: 1430 nM
  TGI: 2950 nM
[49]
  GI50: 1340 nM
  TGI: 3650 nM
[50]
  GI50: 838 nM
  TGI: 2940 nM
[51]
  GI50: 1200 nM
  TGI: 2980 nM
[52]
  GI50: 1710 nM
  TGI: 3190 nM
[3]
  GI50: 731 nM
  TGI: 2060 nM
[53]
  GI50: 1650 nM
  TGI: 3880 nM
[54]
  GI50: 1270 nM
  TGI: 2630 nM
[55]
  GI50: 458 nM
  TGI: 1840 nM
